Data set [1] in a line: (§1) Anti-inflammatory activity against HBE cells assessed as inhibition of LPS-induced IL-8 level at 5 uM pretreated for 30 mins followed by LPS treatment for 24 hrs by ELISA relative to control. The data set is classed as functional. To be noted: Homo sapiens, time 24.5 hrs. For orientation: In an ELISA, binding on a coated surface is turned into a signal by an enzyme label.

Data set [2] can be described thus: (§2) Anti-inflammatory activity against HBE cells assessed as inhibition of LPS-induced IL-6 level at 5 uM pretreated for 30 mins followed by LPS treatment for 24 hrs by ELISA relative to control. The data set is classed as functional. As to conditions: Homo sapiens, time 24.5 hrs.
Data set [3] is described as follows: Cytotoxicity against HBE cells assessed as cell survival at 10 uM by MTT assay relative to control. To be noted: human; for viability at 10 µM: HBE cells, read-out: Survival. In kind it is toxicity, cell-based. (Tetrazolium assays rely on reduction of a dye to a coloured formazan, in cell work by metabolically active cells.)
Data set [4] relates to HBE. The description is as §1. To be noted: Homo sapiens, time 24.5 hrs. The data set is classed as functional.
The test system of data set [5] is HBE. Described as §2. In kind it is functional. As to conditions: Homo sapiens, time 24.5 hrs.

From ChEMBL document CHEMBL6087451, “Design, Synthesis, and Biological Evaluation of 2-Arylaminopyrimidine Derivatives as Dual Cathepsin L and JAK Inhibitors for the Treatment of Acute Lung Injury” (J Med Chem, 2025) come the findings set out here.

Activity calls are given as the source filed them. No cut-off for these calls is given here.

Broadly, the inhibition is the drop in the measured response relative to a control, in per cent. Turning to `Cn1cc(-c2ccnc(Nc3ccccn3)n2)c2ccccc21`, the values for the inhibition at 5 µM in data set [1] and in data set [2] were 56% and 68%, respectively. Moreover, the viability at 10 µM in data set [3] was < 70%.

In the case of `Cn1cc(-c2ccnc(Nc3cccnc3)n2)c2ccccc21`, the inhibition at 5 µM worked out at 56% in data set [1] and 54% in data set [2]. Further, the viability at 10 µM in data set [3] was < 70%.

As for `Nc1cccc(Nc2nccc(-c3c[nH]c4ccccc34)n2)c1`, the inhibition entry with HBE [4] and in the data set on HBE [5] was “Active” each time. In addition, in data set [3] (hbe, 10 µM), the Activity result is “Toxic”.

Take `CCCCNc1nccc(-c2cn(C)c3ccccc23)n1`: the inhibition result in the data set on HBE [4] and with HBE [5] was “inactive” throughout. Moreover, the viability at 10 µM in data set [3] is < 70%.

For the molecule `Cn1cc(-c2ccnc(NC3CC3)n2)c2ccccc21`, the inhibition result with HBE [4] and in the data set with HBE [5] was “inactive” throughout. Moreover, the viability at 10 µM in data set [3] was < 70%.
